US20250230155A1 (Vanderbilt University, priority 2021, published 2025)
pEC50: −log10 of the molar value. Where two headings read alike, the source gives them in different places.

Biological target: T1, human mAChR M4 (Homo sapiens, UniProt P08173)
T1 construct: expressed in transfected cells
T1 sequence (P08173 1-479): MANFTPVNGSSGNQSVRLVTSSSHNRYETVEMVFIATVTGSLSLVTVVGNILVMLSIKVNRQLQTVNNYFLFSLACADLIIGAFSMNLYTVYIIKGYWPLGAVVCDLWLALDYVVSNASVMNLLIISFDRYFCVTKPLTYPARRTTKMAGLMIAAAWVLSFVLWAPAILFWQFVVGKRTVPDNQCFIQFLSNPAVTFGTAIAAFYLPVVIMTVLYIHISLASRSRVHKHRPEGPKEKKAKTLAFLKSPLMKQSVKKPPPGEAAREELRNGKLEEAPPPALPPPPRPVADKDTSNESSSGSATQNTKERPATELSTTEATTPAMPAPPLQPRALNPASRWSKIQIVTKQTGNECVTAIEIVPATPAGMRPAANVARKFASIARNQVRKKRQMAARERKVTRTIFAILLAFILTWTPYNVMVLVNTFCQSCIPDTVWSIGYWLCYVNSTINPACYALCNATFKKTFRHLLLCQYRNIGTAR
Test: mAChR M4 cell-based functional assay (calcium mobilization, CHO-K1 hM4-Gqi5 cells)
Conditions: for Emax at 30 µM: CHO-K1, % ACh maximum at 30 μM, human M4; for pEC50: increase in the EC20 acetylcholine response, CHO-K1 hM4-Gqi5 cells
Procedure: Human and rat M4 cDNAs, along with the chimeric G protein Gqi5, were transfected into Chinese hamster ovary (CHO-K1) cells purchased from the American Type Culture Collection using Lipofectamine2000. hM4-Gqi5 cells were grown in Ham's F-12 medium containing 10% heat-inactivated fetal bovine serum (FBS), 20 mM HEPES, 50 μg/mL G418 sulfate, and 500 μg/mL Hygromycin B. rM4-Ggi5 cells were grown in DiVEM containing 10% heat-inactivated FBS, 20 mM THEPES, 400 μμg/mL G418 sulfate, and 500 μμg/mL Hygromycin B.
For high throughput measurement of agonist-evoked increases in intracellular calcium, CHO-K1 cells stably expressing muscarinic receptors were plated in growth medium lacking G418 and hygromycin at 15,000 cells/20 μL/well in Greiner 384-well black-walled, tissue culture (TC)-treated, clear-bottom plates (VWR). Cells were incubated overnight at 37° C. and 5% CO2. The next day, cells were washed using an ELX 405 (BioTek) with assay buffer; the final volume was then aspirated to 20 μL. Next, 20 μL of a […] of Fluo-4/acetoxymethyl ester (Invitrogen, Carlsbad, CA), prepared as a 2.3 mM stock in DMSO and mixed in a 1:1 ratio with 10% (w/v) Pluronic F-127 and diluted in assay buffer, was added to the wells and the cell plates were incubated for 50 min at 37° C. and 5% C02. Dye was removed by washing with the ELX 405 and the final volume was aspirated to 20 μL. Compound master plates were formatted in an 11 point concentration-response curve (CRC) format (1:3 dilutions) in 100% DMSO with a starting concentration of 10 mM using a BRAVO liquid handler (Agilent). Test compound CRCs were then transferred to daughter plates (240 nL) using the Echo acoustic plate reformatter (Labcyte, Sunnyvale, CA) and then diluted into assay buffer (40 μL) to a 2× stock using a Thermo Fisher Combi (Thermo Fisher Scientific, Waltham, MA).
Calcium flux was measured using the Functional Drug Screening System (FDSS) 6000 or 7000 (Hamamatsu Corporation, Tokyo, Japan) as an increase in the fluorescent static ratio. Compounds were applied to cells (20 μL, 2×) using the automated system of the FDSS at 2-4 seconds into the protocol and the data were collected at 1 Hz. At 144 seconds, 10 μL of an EC20 concentration of the muscarinic receptor agonist acetylcholine was added (5×), followed by the addition of 12 μL of an EC80 concentration of acetylcholine at the 230 second time point (5×). Agonist activity was analyzed as a concentration-dependent increase in calcium mobilization upon compound addition. Positive allosteric modulator activity was analyzed as a concentration-dependent increase in the EC20 acetylcholine response. Antagonist activity was analyzed as a concentration-dependent decrease in the EC80 acetylcholine response. Concentration-response curves were generated using a four-parameter logistical equation in XLFit curve fitting software (IDBS, Bridgewater, NJ) for Excel (Microsoft, Redmond, WA) or Prism (GraphPad Software, Inc., San Diego, CA).
Compounds were synthesized as described above. Activity (EC50 and Emax) was determined in the mAChR M4 cell-based functional assay as described above and the data are shown in Table 2. The compound number corresponds to the compound numbers used in Table 1.

[1] = positive allosteric modulator activity, read-out: Human M4 EC50

Row | SMILES | Emax at 30 µM [%] | pEC50 [1] | Emax (CHO-K1) [%] | pEC50 (Human M4 EC50, positive allosteric modulator activity)
1 | Cc1c(C#N)nnc(N2CCc3ncc(-c4cccnc4C(F)(F)F)cc3C2)c1C [compound 50, 4,5-dimethyl-6-[3-[2-(trifluoromethyl)-3-pyridyl]-7,8-dihydro-5H-1,6-naphthyridin-6-yl]pyridazine-3-carbonitrile] | 68 | 5.75 |  | 
2 | Cc1nc(Cl)c(C)c(N2CCc3ncc(C4CC4)cc3C2)n1 [compound 225, 6-(6-chloro-2,5-dimethylpyrimidin-4-yl)-3-cyclopropyl-5,6,7,8-tetrahydro-1,6-naphthyridine] |  |  | 87 | 7.24
3 | Cc1c(C#N)nnc(N2CCc3ncc(Cc4ccccc4F)cc3C2)c1C [Example 369, 6-(3-(2-fluorobenzyl)-7,8-dihydro-1,6-naphthyridin-6(5H)-yl)-4,5-dimethylpyridazine-3-carbonitrile] | 63 | 6.37 |  | 
4 | [2H]C1([2H])Cc2ncc(Nc3cccnc3C)cc2C([2H])([2H])N1c1nnc(C#N)cc1C [Example 604, 5-methyl-6-(3-((2-methylpyridin-3-yl)amino)-7,8-dihydro-1,6-naphthyridin-6(5H)-yl-5,5,7,7-d4)pyridazine-3-carbonitrile] | 83 | 6.80 |  | 
5 | Cc1cc(C#N)cnc1N1CCc2ncc(N3CCC(C)n4nccc43)cc2C1 (stereo not drawn) [Example 386, 5-methyl-6-(3-(7-methyl-6,7-dihydropyrazolo[1,5-a]pyrimidin-4(5H)-yl)-7,8-dihydro-1,6-naphthyridin-6(5H)-yl)nicotinonitrile] | 103 | 7.12 |  | 
6 | Cc1c(C#N)nnc(N2CCc3ncc(-c4ccc(N5CC(C(C)(C)O)C5)nc4)cc3C2)c1C [Example 329, 6-(3-(6-(3-(2-hydroxypropan-2-yl)azetidin-1-yl)pyridin-3-yl)-7,8-dihydro-1,6-naphthyridin-6(5H)-yl)-4,5-dimethylpyridazine-3-carbonitrile] | 66 | 6.26 |  | 
7 | Cc1cc(C(=O)N2CC3(C2)CC(F)(F)C3)nnc1N1CCc2ncc(N3CCO[C@H](C)C3)cc2C1 [Example 574, (R)-(6,6-difluoro-2-azaspiro[3.3]heptan-2-yl)(5-methyl-6-(3-(2-methylmorpholino)-7,8-dihydro-1,6-naphthyridin-6(5H)-yl)pyridazin-3-yl)methanone] | 81 | 6.71 |  | 
8 | Cc1cc(C(=O)N2CC(C)(O)C2)nnc1N1CCc2ncc(CC(F)(F)F)cc2C1 [Example 588, (3-hydroxy-3-methylazetidin-1-yl)(5-methyl-6-(3-(2,2,2-trifluoroethyl)-7,8-dihydro-1,6-naphthyridin-6(5H)-yl)pyridazin-3-yl)methanone] | 93 | 6.49 |  | 
9 | Cc1cc(C(=O)N2CCOCC2)nnc1N1CCc2ncc(CC(F)(F)F)cc2C1 [Example 587, (5-methyl-6-(3-(2,2,2-trifluoroethyl)-7,8-dihydro-1,6-naphthyridin-6(5/)-yl)pyridazin-3-yl)(morpholino)methanone] | 69 | 5.18 |  | 
10 | Cc1nc(Cl)c(C)c(N2CCc3ncc(-c4sc(C)nc4C)cc3C2)n1 [compound 198, 5-[6-(6-chloro-2,5-dimethyl-pyrimidin-4-yl)-7,8-dihydro-5H-1,6-naphthyridin-3-yl]-2,4-dimethyl-thiazole] | 92 | 6.86 |  | 
11 | Cc1cc(C#N)nnc1N1CCc2ncc(Nc3cccnc3F)cc2C1 [Example 399, 6-(3-((2-fluoropyridin-3-yl)amino)-7,8-dihydro-1,6-naphthyridin-6(5H)-yl)-5-methylpyridazine-3-carbonitrile] | 73 | 6.66 |  | 
12 | Cc1cc(C#N)cnc1N1CCc2ncc(-n3ccnc3)cc2C1 [Example 343, 6-(3-(1H-imidazol-1-yl)-7,8-dihydro-1,6-naphthyridin-6(5H)-yl)-5-methylnicotinonitrile] | 97 | 6.65 |  | 
13 | Cc1c(C#N)nnc(N2CCc3ncc(N4CCO[C@@H](c5ccccc5)C4)cc3C2)c1C [Example 379, (S)-4,5-dimethyl-6-(3-(2-phenylmorpholino)-7,8-dihydro-1,6-naphthyridin-6(5H)-yl)pyridazine-3-carbonitrile] | 47 | 5.44 |  | 
14 | Cc1ccc(Oc2cnc3c(c2)CN(c2ncc(C#N)cc2C)CC3)c(F)c1 [Example 349, 6-(3-(2-fluoro-4-methylphenoxy)-7,8-dihydro-1,6-naphthyridin-6(5H)-yl)-5-methylnicotinonitrile] | 72 | 5.95 |  | 
15 | Cc1cc(C#N)cnc1N1CCc2ncc(NCC3CCCO3)cc2C1 (stereo not drawn) [Example 9] | 76 | 6.11 |  | 
16 | COc1ccc(-c2cnc3c(c2)CN(c2nnc(C#N)c(C)c2C)CC3)cn1 [Example 299, 6-(3-(6-methoxypyridin-3-yl)-7,8-dihydro-1,6-naphthyridin-6(5H)-yl)-4,5-dimethylpyridazine-3-carbonitrile] | 64 | 6.75 |  | 
17 | Cc1nc(Cl)c(C)c(N2CCc3ncc(-c4cnn(C)c4)cc3C2)n1 [compound 92, 6-(6-chloro-2,5-dimethyl-pyrimidin-4-yl)-3-(1-methylpyrazol-4-yl)-7,8-dihydro-5H-1,6-naphthyridine] | 82 | 6.66 |  | 
18 | FC(F)(F)c1cnc2c(c1)CN(c1nc(C3CC3)nc3c1CCC3)CC2 [compound 265, 6-(2-cyclopropyl-6,7-dihydro-5H-cyclopenta[d]pyrimidin-4-yl)-3-(trifluoromethyl)-5,6,7,8-tetrahydro-1,6-naphthyridine] |  | 5.83 |  | 
19 | Cc1cnccc1Nc1cnc2c(c1)CN(c1nnc(C#N)c(C)c1C)CC2 [Example 618, 4,5-dimethyl-6-(3-((3-methylpyridin-4-yl)amino)-7,8-dihydro-1,6-naphthyridin-6(5)-yl)pyridazine-3-carbonitrile] | 74 | 6.41 |  | 
20 | Cc1c(Cl)nc(C(F)(F)F)nc1N1CCc2ncc(N3CCCn4nccc43)cc2C1 [compound 248, 6-(6-chloro-5-methyl-2-(trifluoromethyl)pyrimidin-4-yl)-3-(6,7-dihydropyrazolo[1,5-a]pyrimidin-4(5H)-yl)-5,6,7,8-tetrahydro-1,6-naphthyridine] | 88 | 6.52 |  | 
21 | Cc1cc(C#N)cnc1N1CCc2ncc(-c3cnn(-c4ccc(F)cc4)c3)cc2C1 [compound 106, 6-[3-[1-(4-fluorophenyl)pyrazol-4-yl]-7,8-dihydro-5H-1,6-naphthyridin-6-yl]-5-methyl-pyridine-3-carbonitrile] | 33 | 5.94 |  | 
22 | Cc1cc(C(=O)NCc2ccncc2)cnc1N1CCc2ncc(-c3cnn(C)c3)cc2C1 [compound 176, 5-methyl-6-[3-(1-methylpyrazol-4-yl)-7,8-dihydro-5H-1,6-naphthyridin-6-yl]-N-(4-pyridylmethyl)pyridine-3-carboxamide] | 89 | 6.73 |  | 
23 | Cc1cc(C#N)cnc1N1CCc2ncc(OCCOc3ccccc3)cc2C1 [Example 427, 5-methyl-6-(3-(2-phenoxyethoxy)-7,8-dihydro-1,6-naphthyridin-6(5H)-yl)nicotinonitrile] | 63 | 5.57 |  | 
